Key:
[1] = biological target: T1, type 2 human 5α-reductase (HRED2) (Homo sapiens, UniProt P31213); assay: Whole cell assay of 5α-reductase, type 2 isoenzyme; format: cell-based; set-up: expressed in transfected cells; host or cells: rat 1A cells infected with pMV7 retrovirus; details: for inhibition at 100 µM / HRED2 % Inhibition @ 100 μM: Table 7; for IC50: Table 7, read-out: HCRED2 IC50;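 for all read-outs here: intact rat 1A cells genetically modified to carry human type 2 5α-reductase served as the enzyme source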
T1 sequence (P31213 1-254): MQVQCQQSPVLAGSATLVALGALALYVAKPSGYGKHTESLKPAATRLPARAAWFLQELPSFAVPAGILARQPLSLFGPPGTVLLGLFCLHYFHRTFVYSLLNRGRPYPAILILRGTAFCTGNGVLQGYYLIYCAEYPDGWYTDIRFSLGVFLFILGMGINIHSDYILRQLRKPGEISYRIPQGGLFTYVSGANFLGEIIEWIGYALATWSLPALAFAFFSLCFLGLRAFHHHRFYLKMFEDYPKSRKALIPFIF

[2] = biological target: T1, type 2 human 5α-reductase (HRED2); assay: Cell free assay of 5α-reductase, microsomes of rat 1A cells expressing type 2 isoenzyme (HRED2); format: biochemical; set-up: expressed in transfected cells; host or cells: rat 1A cells infected with pMV7 retrovirus; microsomes;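 note: labeled testosterone and its product dihydrotestosterone measured in microsomal reaction extracts via thin layer chromatography plus radioanalytic scanning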
[3] = biological target: T2, type 1 human 5α-reductase (HRED1) (Homo sapiens, UniProt P18405); assay: Cell free assay of 5α-reductase, microsomes of rat 1A cells expressing type 1 isoenzyme (HRED1); format: biochemical; set-up: expressed in transfected cells; host or cells: rat 1A cells infected with pMV7 retrovirus; microsomes;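 note: microsomes from rat 1A cells expressing human type 1 5α-reductase, conversion of radiolabeled testosterone to dihydrotestosterone quantified by thin layer chromatography with radioanalytic scanning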
T2 sequence (P18405 1-259): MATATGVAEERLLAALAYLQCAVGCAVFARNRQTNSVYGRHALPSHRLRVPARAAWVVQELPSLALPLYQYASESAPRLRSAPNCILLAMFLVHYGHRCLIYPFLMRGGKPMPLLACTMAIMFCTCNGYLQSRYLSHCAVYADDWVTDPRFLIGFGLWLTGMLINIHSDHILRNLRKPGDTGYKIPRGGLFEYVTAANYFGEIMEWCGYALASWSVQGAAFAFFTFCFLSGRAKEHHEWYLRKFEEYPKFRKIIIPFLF

[4] = biological target: T2, type 1 human 5α-reductase (HRED1); assay: Whole cell assay of 5α-reductase, type 1 isoenzyme; format: cell-based; set-up: expressed in transfected cells; host or cells: rat 1A cells infected with pMV7 retrovirus;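 note: intact rat 1A cells engineered to express the human type 1 5α-reductase isozyme serve as the enzyme source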
[5] = 100 μM, cell free assay, Table 6, read-out: HRED2 % Inhibition @ 100 μM
[6] = cell-free assay, read-out: IC50, type 2 isoenzyme
[7] = cell-free assay, read-out: IC50, type 1 isoenzyme
[8] = whole cell assay, Table 7, read-out: HCRED1 IC50
[9] = read-out: HRED2 % Inhibition @ 100 μM
[10] = read-out: HRED1 % Inhibition @ 100 μM
[11] = read-out: HRED2 % Inhibition @ 100 uM
[12] = read-out: HRED1 % Inhibition @ 100 uM
[13] = 100 uM, cell free assay, Table 1
[14] = cell free assay, Table 1 flavanoids, read-out: HRED2 IC50
[15] = cell free assay, Table 1 flavanoids, read-out: HRED1 IC50
[16] = cell free assay, Table 2 catechols, read-out: HRED2 IC50
[17] = cell free assay, Table 2 catechols, read-out: HRED1 IC50
[18] = 100 uM, cell free assay, Table 1, read-out: HRED2 % Inhibition @ 100 uM
[19] = 100 uM, cell free assay, Table 1, read-out: HRED1 % Inhibition @ 100 uM

CCCCCC#CCC#CCC#CCC#CCCCC(=O)O [5,8,11,14-Eocpsatetraynoic Acid, 5,8,11,14-eicosatetraynoic acid]
inhibition at 100 µM [1]: 86%
IC50 [1]: 2 µM
inhibition at 100 µM [2, 5]: 81%
IC50 [2, 6]: 3 µM
inhibition at 100 µM ([3]; 100 μM, cell free assay, Table 6, read-out: HRED1 % Inhibition @ 100 μM): 97%
IC50 [3, 7]: 15 µM
inhibition at 100 µM ([4]; whole cell assay, Table 7): 67%
IC50 [4, 8]: 22 µM

O=C1c2ccccc2C(=O)c2c1cc(S(=O)(=O)[O-])c(O)c2O.[Na+] [Alizarin Red 5, Alizarin Red S]
IC50 [1]: > 100 µM
IC50 ([2]; cell free assay, Table 4 quinones, read-out: HRED2 IC50): > 100 µM
HRED1 % Inhibition @ 100 μM ([4]; whole cell assay, Table 7): 28%

O=C1c2ccccc2C(=O)c2c1ccc(O)c2O [Alizarin]
inhibition at 100 µM [1]: 27%
IC50 [1]: > 100 µM
inhibition at 100 µM [2, 9]: 54%
IC50 ([3]; cell free assay, Table 4 quinones, read-out: HRED1 IC50): 3 µM
inhibitory activity against type 1 isoenzyme, in words ([3]; cell-free assay): very effective inhibitor
inhibition at 100 µM [3, 10]: 95%
inhibition at 100 µM ([4]; whole cell assay, Table 7): 75%
inhibitory activity in the whole cell assay, type 1 isoenzyme, in words ([4]; whole cell assay): very effective inhibitor
IC50 [4, 8]: 6 µM

CC/C=C\C/C=C\C/C=C\CCCCCCCC(=O)OC [Alpha-Linolenic Acid Me Ester]
HRED2 % Inhibition @ 100 μM [1]: 18%
IC50 [1]: > 100 µM
HRED1 % Inhibition @ 100 μM ([4]; whole cell assay, Table 7): 24%
IC50 [4, 8]: > 100 µM

Oc1ccc2c(O)c3ccccc3cc2c1O [Anthrarobin]
inhibition at 100 µM [1]: 31%
IC50 [1]: > 100 µM
IC50 [2]: 50 µM
inhibition at 100 µM [2, 11]: 97%
inhibition at 100 µM [2, 9]: 97%
IC50 ([2]; read-out: HRED2 IC50, cell free assay, Table 4 quinones): 50 µM
IC50 [3]: 4 µM
inhibition at 100 µM [3, 12]: 99%
inhibition at 100 µM [3, 10]: 99%
IC50 ([3]; read-out: HRED1 IC50, cell free assay, Table 4 quinones): 4 µM
IC50 [4]: 6 µM
inhibition at 100 µM ([4]; whole cell assay, Table 7): 91%
inhibitory activity in the whole cell assay, type 1 isoenzyme, in words ([4]; whole cell assay): active

COc1ccc(-c2coc3cc(O)cc(O)c3c2=O)cc1 [Biochanin a]
inhibitory activity in the whole cell assay, type 2 isoenzyme, in words [1]: significant inhibitory activity
HRED2 % Inhibition @ 100 μM [1]: 93%
IC50 [1]: 5 µM
HRED2 % Inhibition @ 100 uM [2, 13]: 74%
IC50 [2, 14]: 17 µM
inhibitory activity against type 2 isoenzyme, in words ([2]; cell-free assay): effective inhibitors
HRED1 % Inhibition @ 100 uM [3, 13]: 50%
IC50 [3, 15]: > 100 µM
HRED1 % Inhibition @ 100 μM ([4]; whole cell assay, Table 7): 64%
IC50 [4, 8]: 64 µM

O=C(/C=C/c1ccc(O)c(O)c1)OCCc1ccccc1 [Caffeic Acid Phenethyl Ester]
IC50 [1]: 7 µM
IC50 [2, 16]: > 100 µM
IC50 [3, 17]: 26 µM
inhibitory activity in the whole cell assay, type 1 isoenzyme, in words ([4]; whole cell assay): active
IC50 [4, 8]: 8 µM

Oc1ccccc1O [Catechol]
inhibition at 100 µM [1]: 3%
IC50 [1]: > 100 µM
IC50 [2, 16]: > 100 µM
inhibition at 100 µM [2, 11]: 0%
IC50 [3, 17]: > 100 µM
inhibition at 100 µM [3, 12]: 5%
inhibition at 100 µM ([4]; whole cell assay, Table 7): 9%
IC50 [4, 8]: > 100 µM

COc1cc(/C=C/C(=O)CC(=O)/C=C/c2ccc(O)c(OC)c2)ccc1O [Curcumin]
inhibitory activity against type 2 isoenzyme, in words ([2]; cell-free assay): very effective inhibitor
inhibition at 100 µM [2, 11]: 87%
inhibition at 100 µM ([3]; 100 uM, cell free assay, Table 3, read-out: HRED1 % Inhibition @ 100 uM): 95%
inhibitory activity against type 1 isoenzyme, in words ([3]; cell-free assay): very effective inhibitor
inhibition at 100 µM ([4]; whole cell assay, Table 7): 99%

O=c1c(-c2ccc(O)cc2)coc2cc(O)ccc12 [Daidzein]
inhibitory activity in the whole cell assay, type 2 isoenzyme, in words [1]: significant inhibitory activity
inhibitory activity against type 2 isoenzyme, in words ([2]; cell-free assay): effective inhibitors
HRED1 % Inhibition @ 100 μM ([4]; whole cell assay, Table 7): 9%

CCCCCCCCCCCCOC(=O)c1cc(O)c(O)c(O)c1 [Dodecylgallate]
inhibition at 100 µM [1]: 98%
IC50 [1]: 7 µM
inhibition at 100 µM ([2]; 100 uM, cell free assay, Table 2, read-out: HRED2 % Inhibition @ 100 uM): 36%
IC50 [2, 16]: > 100 µM
inhibition at 100 µM ([3]; 100 uM, cell free assay, Table 2, read-out: HRED1 % Inhibition @ 100 uM): 88%
IC50 [3, 17]: 43 µM
inhibition at 100 µM ([4]; whole cell assay, Table 7): 99%
inhibitory activity in the whole cell assay, type 1 isoenzyme, in words ([4]; whole cell assay): active
IC50 [4, 8]: 3 µM

O=C(O[C@@H]1Cc2c(O)cc(O)cc2O[C@@H]1c1ccc(O)c(O)c1)c1cc(O)c(O)c(O)c1 [Epicatechin Gallate]
inhibition at 100 µM [1]: 0%
IC50 [1]: > 100 µM
IC50 [2, 14]: 60 µM
inhibition at 100 µM [2, 11]: 83%
IC50 [3, 15]: 11 µM
inhibition at 100 µM [3, 12]: 100%
inhibition at 100 µM ([4]; whole cell assay, Table 7): 0%
IC50 [4, 8]: > 100 µM

Oc1cc(O)c2c(c1)O[C@H](c1ccc(O)c(O)c1)[C@H](O)C2 [Epicatechin]
inhibition at 100 µM [1]: 1%
IC50 [1]: > 100 µM
inhibition at 100 µM [2, 18]: 4%
IC50 [2, 14]: > 100 µM
inhibition at 100 µM [3, 19]: 14%
IC50 [3, 15]: > 100 µM
inhibition at 100 µM ([4]; whole cell assay, Table 7): 0%
IC50 [4, 8]: > 100 µM

Oc1cc(O)c2c(c1)O[C@H](c1cc(O)c(O)c(O)c1)[C@H](O)C2 [Epigallocatechin]
inhibition at 100 µM [1]: 1%
IC50 [1]: > 100 µM
inhibition at 100 µM [2, 18]: 3%
inhibition at 100 µM ([2]; 100 μM, cell free assay, Table 5, read-out: HRED2 % Inhibition @ 100 μM): 30%
IC50 [2, 14]: > 100 µM
IC50 ([2]; cell free assay, Table 5 epigallocatechin derivatives, read-out: HRED2 IC50): > 100 µM
inhibition at 100 µM [3, 19]: 15%
inhibition at 100 µM ([3]; 100 μM, cell free assay, Table 5, read-out: HRED1 % Inhibition @ 100 μM): 61%
IC50 [3, 15]: > 100 µM
IC50 ([3]; cell free assay, Table 5 epigallocatechin derivatives, read-out: HRED1 IC50): 62 µM
inhibition at 100 µM ([4]; whole cell assay, Table 7): 15%
IC50 [4, 8]: > 100 µM

O=c1c(O)c(-c2ccc(O)c(O)c2)oc2cc(O)ccc12 [Fisetin]
inhibition at 100 µM [1]: 27%
IC50 [1]: > 100 µM
inhibition at 100 µM [2, 18]: 4%
IC50 [2, 14]: > 100 µM
inhibition at 100 µM [3, 19]: 97%
IC50 [3, 15]: 57 µM
IC50 [3, 7]: < 100 µM
inhibition at 100 µM ([4]; whole cell assay, Table 7): 42%
IC50 [4, 8]: > 100 µM

O=C(O)c1cc(O)c(O)c(O)c1 [Gallic Acid]
inhibition at 100 µM [1]: 0%
IC50 [1]: > 100 µM
IC50 [4]: > 100 µM
inhibition at 100 µM ([4]; whole cell assay, Table 7): 13%

CCCCC/C=C\C/C=C\C/C=C\CCCCC(=O)O[C@H]1CC[C@@]2(C)C(=CC[C@H]3[C@@H]4CC[C@H]([C@H](C)CCCC(C)C)[C@@]4(C)CC[C@@H]32)C1 [Gamma-Linolenic Acid Chol Ester]
HRED2 % Inhibition @ 100 μM [1]: 11%
IC50 [1]: > 100 µM
HRED1 % Inhibition @ 100 μM ([4]; whole cell assay, Table 7): 12%
IC50 [4, 8]: > 100 µM

CCCCC/C=C\C/C=C\C/C=C\CCCCC(=O)OC [Gamma-Linolenic Acid Me Ester]
HRED2 % Inhibition @ 100 μM [1]: 26%
IC50 [1]: > 100 µM
HRED1 % Inhibition @ 100 μM ([4]; whole cell assay, Table 7): 49%
IC50 [4, 8]: > 100 µM

CCCCC/C=C\C/C=C\C/C=C\CCCCC(=O)O [Gamma-Linolenic Acid, Gamma-Linolenic Acid C18:3 CIS 6.9,12]
inhibition at 100 µM [1]: 86%
IC50 [1]: 20 µM
inhibition at 100 µM [2, 5]: 89%
IC50 ([2]; cell free assay, Table 6 fatty acids, read-out: HRED2 IC50): 11 µM
IC50 [2, 6]: 3 µM
IC50 ([3]; cell free assay, Table 6 fatty acids, read-out: HRED1 IC50): 5 µM
IC50 [3, 7]: 3 µM
inhibition at 100 µM [3, 10]: 99%
inhibition at 100 µM ([4]; whole cell assay, Table 7): 91%
IC50 [4, 8]: 22 µM

O=c1c(-c2ccc(O)cc2)coc2cc(O)cc(O)c12 [Genistein]
inhibitory activity in the whole cell assay, type 2 isoenzyme, in words [1]: significant inhibitory activity
inhibitory activity against type 2 isoenzyme, in words ([2]; cell-free assay): effective inhibitors

CCCCCCCCCCCCCC(=O)OC1Cc2c(O)cc(O)cc2OC1c1cc(O)c(O)c(O)c1 (stereo not drawn) [HZIV 165]
HRED2 % Inhibition @ 100 μM [1]: 98%
IC50 [1]: 32 µM
HRED1 % Inhibition @ 100 μM ([4]; whole cell assay, Table 7): 97%
IC50 [4, 8]: 28 µM

CCCCCCCC(=O)OC1Cc2c(O)cc(O)cc2OC1c1cc(O)c(O)c(O)c1 (stereo not drawn) [HZIV 166]
HRED2 % Inhibition @ 100 μM [1]: 83%
IC50 [1]: 72 µM
HRED1 % Inhibition @ 100 μM ([4]; whole cell assay, Table 7): 89%
IC50 [4, 8]: 58 µM

CC(C)OC(=O)c1cc(O)c(O)c(O)c1 [Isopropyl Gallate]
inhibition at 100 µM [1]: 0%
IC50 [1]: > 100 µM
inhibition at 100 µM ([4]; whole cell assay, Table 7): 0%
IC50 [4, 8]: > 100 µM

Source: US20030144346A1, “Methods and compositions for regulation of 5-alpha reductase activity” (priority 1997, published 2003)
